Patent publication US20130040882A1, “USE OF FIBROBLAST GROWTH FACTOR FRAGMENTS” (NOVARTIS AG, priority 2003, published 2013)
Read-outs that look alike come from different tables or passages of the source.

Tested on: transcript levels in tissues (GH/IGF and glucagon/insulin axes, SSTR signalling)
Assay type: in vivo, cynomolgus monkeys
[1] = RNA expression fold change, brown fat
[2] = RNA expression fold change, pancreas
[3] = RNA expression fold change, pituitary

For “cyclo[4-(NH2—C2H4—NH—CO—O)Pro-Phg-DTrp-Lys-Tyr(4-Bzl)-Phe] [SOM230]”, the “Gene expression (AvgDiff): IGF-1” value (BROWN FAT) was 389, the “Gene expression (AvgDiff): IGFBP 4” value (BROWN FAT) was 763 and the “Gene expression (AvgDiff): IRS 2” value (BROWN FAT) was 146. For the same substance, the “Gene expression (AvgDiff): SSTR3” value (BROWN FAT) was 194, the “Gene expression (AvgDiff): IGF-1” value (PANCREAS) was 89 and the “Gene expression (AvgDiff): SSTR2” value (PANCREAS) was 156. The “Gene expression (AvgDiff): GR” value (PITUITARY) was 109, the “Gene expression (AvgDiff): IGF-2” value (PITUITARY) was 70 and the “Gene expression (AvgDiff): IGFBP, acid labile subunit” value (PITUITARY) was 83. For the same substance, the “Gene expression (AvgDiff): SSTR3” value (PITUITARY) was 57, the “Actin related protein 2/3 complex, subunit 1A (41 kD) ↓” value [1] was “(41 kD) ↓ x2.5” and the “Adrenergic, β-3-, receptor ↑” value [1] was “receptor ↑ x2.5”. The “Apotosis-associated tyrosine kinase ↑” value [1] was “tyrosine kinase ↑ x3.5”, the “CD2 antigen (cytoplasmic tail)-binding protein 2 ↑” value [1] was “protein 2 ↑ x2.5” and the “CSF 1 (macrophage) ↓” value [1] was “↓ x2”. The “CSF 3 receptor (granulocyte) ↑” value [1] was “(granulocyte) ↑ x3”, the “Ca++ channel, voltage dependent, α 1H subunit ↑” value [1] was “↑ x3” and the “Cadherin 5, VE-cadherin (vascular epithelium) ↑” value [1] was “(vascular epithelium) ↑ x3”. For the same substance, the “Cadherin 13, H-cadherin (heart) ↓” value [1] was “(heart) ↓ x2”, the “Cadherin F1B1 ↓” value [1] was “Cadherin F1B1 ↓ x4” and the “Calcium/calmodulin-dependent protein kinase I ↓” value [1] was “kinase I ↓ x3.5”. For the same substance, the “Capping protein (actin filament), gelsolin-like ↓” value [1] was “↓ x2.5”, the “Coagulation factor XIIIAI subunit precursor ↓” value [1] was “↓ x5” and the “Cyclin T2 ↑” value [1] was “Cyclin T2 ↑ x2.5”. For the same substance, the “Dopamine receptor D3 ↑” value [1] was “x2.5”, the “Dual specificity PP MKP-5 ↑” value [1] was “MKP-5 ↑ x2.5” and the “EGF receptor pathway substrate 15 ↓” value [1] was “substrate 15 ↓ x2”. The “Endothelial cell GF 1 (platelet derived) ↓” value [1] was “(platelet derived) ↓ x2”, the “Endothelial differentiation, sphingolipid G-protein-coupled receptor, 5 ↑” value [1] was “coupled receptor, 5 ↑ x2.5” and the “FSHR ↑” value [1] was “FSHR ↑ x2.5”. For the same substance, the “Fms-related tyrosine kinase 1 (VEGF/vascular permeability factor receptor) ↓” value [1] was “receptor) ↓ x4.5”, the “Follistatin-like 3 glycoprotein ↑” value [1] was “glycoprotein ↑ x3” and the “G1 to S phase transition ↓” value [1] was “↓ x1.5”. For the same substance, the “G protein-activated inwardly rectifying K+ channel ↑” value [1] was “channel ↑ x3.5”, the “G protein-coupled receptor 1 ↓” value [1] was “receptor 1 ↓ x2.5” and the “G α inhibiting activity polypeptide 3 interacting protein ↓” value [1] was “protein ↓ x5”. For the same substance, the “GLUR, metabotropic 1 ↑” value [1] was “↑ x2”, the “Guanine nucleotide binding protein (G protein), β polypeptide 3 ↑” value [1] was “↑ x2.5” and the “IFN induced transmembrane protein 1 ↑” value [1] was “↑ x2.5”. The “IFN γ-inducible protein 30 (IP30) ↓” value [1] was 30 (IP30) ↓ x3.5, the “IGF-1 ↓” value [1] was “IGF-1 ↓ x1.5” and the “IGF-binding protein 4 ↓” value [1] was “↓ x2”. The “IL 3 (CSF, multiple) ↑” value [1] was “↑ x2”, the “IL 5R, α ↑” value [1] was “IL 5R, α↑ x2.5” and the “IL 7R precursor ↑” value [1] was “IL 7R precursor ↑ x2”. The “IRS (insulin receptor substrate) 2 ↑” value [1] was “substrate) 2 ↑ x2.5”, the “Neuroblastoma apoptosis-related RNA bindingprotein ↓” value [1] was “bindingprotein ↓ x3” and the “Neuroblastoma ↓” value [1] was “Neuroblastoma ↓ x2.5”. For the same substance, the “Oxytocin, prepro-(neurophysin I) ↑” value [1] was “(neurophysin I) ↑ x2.5”, the “PCNA ↓” value [1] was “PCNA ↓ x2.5” and the “PI glycan, class F ↓” value [1] was “PI glycan, class F ↓ x2”. The “PI glycan, class L ↑” value [1] was “PI glycan, class L ↑ x3.5”, the “PI-3-kinase. regulatory subunit, polypeptide 2 (p85 β) ↓” value [1] was “(p85 β) ↓ x3.5” and the “PLC β4 ↑” value [1] was “PLC β4 ↑ x2”. For the same substance, the “PP 2, regulatory subunit B (B56), γ isoform ↓” value [1] was “B (B56), γ isoform ↓ x1.5”, the “PP 5, catalytic subunit ↑” value [1] was “↑ x2.5” and the “Pentaxin-related gene, rapidly induced by IL-1 ↓” value [1] was “↓ x7.5”. For the same substance, the “T3 receptor ↑” value [1] was “T3 receptor ↑ x2”, the “TGF β3 ↑” value [1] was “TGF β3 ↑ x2.5” and the “TGF β-activated kinase-binding protein 1 ↑” value [1] was “binding protein 1 ↑ x2.5”. For the same substance, the “THR interactor 10 ↓” value [1] was “THR interactor 10 ↓ x3”, the “THR interactor 12 ↓” value [1] was “↓ x1.5” and the “TNF type 1 receptor associated protein ↓” value [1] was “associated protein ↓ x2”. The “VGF nerve growth factor inducible ↑” value [1] was “factor inducible ↑ x2”, the “BCL2/adenovirus E1B 19 kD-intracting protein 1, isoform BNIP1-a ↓” value [2] was “BNIP1-a ↓ x1.5” and the “CRHR 1 ↓” value [2] was “CRHR 1 ↓ x2”. For the same substance, the “Ca++ channel, voltage dependent, α 1F subunit ↓” value [2] was “↓ x4.5”, the “Cdki 1C ↑” value [2] was “Cdki 1C ↑ x2” and the “Chymotrypsin-like ↑” value [2] was “↑ x3.5”. The “Cyclin D1 ↑” value [2] was “Cyclin D1 ↑ x2”, the “Cyclin T2 ↓” value [2] was “Cyclin T2 ↓ x2” and the “G-CSF protein ↓” value [2] was “G-CSF protein ↓ x2”. The “GLUR precursor, flip isoform ↑” value [2] was “flip isoform ↑ x3”, the “Gastrin-releasing peptide receptor ↓” value [2] was “peptide receptor ↓ x5” and the “IFN regulatory factor 3 ↑” value [2] was “factor 3 ↑ x5”. For the same substance, the “IGF-1 ↑” value [2] was “IGF-1 ↑ x4.5”, the “IL 1 receptor antagonist ↓” value [2] was “antagonist↓ x2” and the “IP-1-phosphatase ↑” value [2] was “↑ x2.5”. For the same substance, the “Integrin α2b precursor ↑” value [2] was “precursor ↑ x1.5”, the “K+ voltage-gated channel, KQT-like subfamily, member3 ↓” value [2] was “↓ x2.5” and the “Na+ channel, voltage-gated, type I, β polypeptide ↑” value [2] was “β polypeptide ↑ x2”. The “Neuroblastoma apoptosis-related RNA bindingprotein ↓” value [2] was “↓ x3”, the “PDGFR α ↑” value [2] was “PDGFR α ↑ x2.5” and the “PDGFR, α polypeptide ↑” value [2] was “α polypeptide ↑ x1.5”. The “PI-4-kinase, catalytic, α polypeptide ↑” value [2] was “α polypeptide ↑ x1.5”, the “PL A2, group IVC (cytosolic, calcium-independent) ↑” value [2] was “independent) ↑ x1.5” and the “Phosphotyrosine independent ligand p62B for the Lck SH2 domain B-cell isoform ↓” value [2] was “isoform ↓ x2”. The “Prostacyclin synthase ↑” value [2] was “↑ x2”, the “SSTR2 ↓” value [2] was “SSTR2 ↓ x1.5” and the “Smad 3 ↓” value [2] was “Smad 3 ↓ x1.5”. The “THR binding protein ↓” value [2] was “↓ x2”, the “THR interactor 10 ↑” value [2] was “↑ x2.5” and the “Thrombospondin 2 ↑” value [2] was “↑ x3.5”. For the same substance, the “1-PI-4-phosphate 5-kinase isoform C ↓” value [3] was “kinase isoform C ↓ x1.5”, the “ANP (atrial natriuretic peptide precursor B) ↑” value [3] was “peptide precursor B) ↑ x2” and the “ATP(GTP)-binding protein ↑” value [3] was “protein ↑ x1.5”. The “ATPase, Ca++ transporting cardiac muscle, slow twitch 2 ↑” value [3] was “↑ x1.5”, the “ATPase, H+/K+ exchanging, α polypeptide ↓” value [3] was “↓ x5” and the “ATPase, Na+/K+ transporting, α2(+) polypeptide ↑” value [3] was “polypeptide ↑ x2.5”. The “ATPase, Na+/K+ transporting, β3 polypeptide ↑” value [3] was “polypeptide ↑ x2.5”, the “Adrenomedullin ↑” value [3] was “Adrenomedullin ↑ x2.5” and the “Arg PTK-binding protein ↓” value [3] was “protein ↓ x2.5”. For the same substance, the “BCL2-antagonist of cell death ↑” value [3] was “death ↑ x2”, the “BCL2-associated athanogene ↑” value [3] was “athanogene ↑ x2” and the “BCL2/adenovirus E1B 19 kD-interacting protein 3 ↑” value [3] was “↑ x1.5”. The “Bax γ ↑” value [3] was “Bax γ ↑ x1.5”, the “Brain cannabinoid receptor 1 ↑” value [3] was “receptor 1 ↑ x2” and the “Butyrate response factor 2 (EGF-response factor 2) ↑” value [3] was “↑ x3”. The “CC chemokines STCP-1 ↑” value [3] was “↑ x1.5”, the “CD36 antigen ↓” value [3] was “CD36 antigen ↓ x2” and the “Calcium/calmodulin-dependent protein kinase I ↑” value [3] was “kinase I ↑ x2.5”. The “Catenin (cadherin-associated protein), α1 (102 kD) ↓” value [3] was “α1 (102 kD) ↓ x1.5”, the “Cdki2C (p18, inhibits CDK4) ↑” value [3] was “CDK4) ↑ x2” and the “Cdki2D (p19, inhibits CDK4) ↑” value [3] was “CDK4) ↑ x1.5”. The “Cell division cycle 25B ↑” value [3] was “↑ x5”, the “Cholecystokinin receptor ↓” value [3] was “receptor ↓ x4.5” and the “Cholinergic receptor, muscarinic 3 ↓” value [3] was “muscarinic 3 ↓ x3”. For the same substance, the “Cholinergic receptor, nicotinic, β polypeptide 4 ↓” value [3] was “β polypeptide 4 ↓ x2”.
